Data taken from publication PMC4457840, “Differential Inhibition of Signal Peptide Peptidase Family Members by Established γ-Secretase Inhibitors” (PLoS ONE, 2015).
Entries after “also recorded” stand apart in the source; their conditions may differ. Numbered stars: 1 amine (or outer) side, 2 acyl side, 3 side chain; on linkers, the order of the positions; unused ones are H or OH. Square brackets hold non-standard residues; d marks the D form. Peptide text beside a SMILES is read from it. * marks the point of attachment. X1 = CC(N[*:1])C(=O)C(F)(F)C(=O)[*:2]; Boc = CC(C)(C)OC(=O)*

What was measured:
hSPP = target: T1, hSPP (Homo sapiens, UniProt Q8TCT9); assay: FBA/hSPP co-transfected HEK 293T cell cleavage assay (Aβ ELISA, Western blot, IP/MS); type: cell-based; conditions: for inhibition of xAβ1-25/K16A secretion (in words) / inhibition at 25 µM: 25 μM, ELISA; for inhibition of FBA cleavage by Western blot: Fig 3C lower panel; for IC50: HEK cells, 24 h, xAβ1-25/K16A by Aβ ELISA, mean ± standard error, read-out: IC50 on FBA/SPPL co-transfected cells; for inhibition at 25 µM: DMSO = 100%, read-out: inhibition of the SPP/SPPLs; for rank order of inhibition: number in parenthesis in Table 3
T1 construct: expressed in transfected cells; host or cells: HEK 293T
T1 sequence (Q8TCT9 1-377): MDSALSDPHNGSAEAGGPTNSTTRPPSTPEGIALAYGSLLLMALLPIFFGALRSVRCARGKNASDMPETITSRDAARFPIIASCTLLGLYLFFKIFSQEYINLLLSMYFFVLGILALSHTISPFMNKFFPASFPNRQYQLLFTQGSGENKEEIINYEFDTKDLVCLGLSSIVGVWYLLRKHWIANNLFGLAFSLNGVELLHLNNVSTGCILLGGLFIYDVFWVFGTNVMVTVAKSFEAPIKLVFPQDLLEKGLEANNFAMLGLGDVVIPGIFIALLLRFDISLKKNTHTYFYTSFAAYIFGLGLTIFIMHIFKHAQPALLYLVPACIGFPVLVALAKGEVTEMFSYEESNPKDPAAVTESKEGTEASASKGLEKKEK
Description: (§1) Expression constructs in pcDNA6 for COOH-terminal FLAG (DYKDDDDK) and strep (WSHPQFEK) tagged SPPL2a, SPPL2b, hSPP and pSPP were generated as previously described. Untagged versions of all enzymes were also made and ligated into the pAG3 vector. Substrates (Fig 1) were designed as follows: FLAG-BRI2_1-81- Aβ1-25/K16A (FBA). The K16A mutation was incorporated to prevent potential α-secretase cleavage that would preclude ELISA based detection of the released COOH-terminal fragment. The substrate DNA was cloned into the expression vector pcDNA6. Constructs were confirmed by DNA sequencing. The overexpression of substrates was performed by transiently transfecting human embryonic kidney (HEK 293T) cells with or without SPP/SPPL vectors. Cells were grown in DMEM media supplemented with Hyclone 10% fetal bovine serum (GE, Logan, Utah, USA) and 1% penicillin/streptomycin (Life Technologies, Grand Island, NY, USA). Briefly, 2.7 μg DNA was applied to a 75% confluent 6 well plate (Corning, Tewksbury, MA, USA) using the polycation polyethylenimine (PEI) transfection method. Inhibitor testing experiments were conducted in 48 well plates with appropriately adjusted amounts of DNA and PEI and incubated 12–16 hours, after which the growth medium was replaced with fresh medium. DMSO (Sigma, St. Louis, MO, USA) and GSIs were added at the appropriate concentration. The GSIs, L685,458 and Compound W were purchased from Tocris (Tocris, Bristol, UK). (Z-LL)2 ketone, Compound E, DAPT, GSI II were purchased from Calbiochem (Merck Millipore, Billerica, MA, USA). LY-411,575 was synthesized by A. Fauq at the Mayo Clinic Chemical Core. Twenty-four hours later, the medium was collected for assay by ELISA and MS. A20 cells (TIB-208) (ATCC, Manassas, VA, USA) were cultured in RPMI-1640 medium (ATCC) supplied with 10% fetal bovine serum, 1% penicillin/streptomycin and 0.05 mM 2-mercaptoethanol (Life Technologies). At the density of 5x10^5 cells/ml, A20 cells were spun down at 1000 g for 2 min and resuspended in fresh medium supplied with DMSO or GSIs and incubated for 16 hr.
(§2) Sandwich ELISAs used for Aβ detection were performed as previously described. Briefly, Aβ and Aβ adducts with substrate TMD in conditioned media was captured with Ab5 antibody (human Aβ1–16 specific) and detected with horseradish peroxidase mAb 4G8 (Covance, Princeton, NJ, USA). Synthetic Aβ1–40 was used as standard. All ELISAs were developed with TMB substrate (KPL, Gaithersburg, Maryland, USA). Bis-Tris precast gels (Biorad, Hercules, CA, USA) were used for all SDS-PAGE. Monoclonal anti-FLAG M2 antibody (Sigma) and Aβ1–16 antibody 6E10 (Covance) were used for Western blotting. Antisera against SPPL2a, SPPL2b, hSPP and pSPP were generated as previously described and were used at dilution of 1:1000 for Western blotting. Anti-CD74 In-1 antibody (BD Bioscience, San Jose, CA, USA) was used for A20 cell lysate Western blotting at dilution of 1:1000.
Immunoprecipitation and mass spectrometry of xAβ1–25 in conditioned media were performed as previously described. In this study, 10 ml conditioned media were used for each experiment. ICDs were immunoprecipitated with anti-FLAG M2 magnetic beads. Cells from 10 cm dished treated with DMSO or 20 μM LY-411,575 were used for each test.

SPPL2a = tested on: T2, SPPL2a; assay: Endogenous CD74 NTF P8 turnover in non-overexpressing A20 cells (Western blot, In-1 antibody); type: cell-based, mouse; conditions: for stabilization of the CD74 8 kDa NTF P8: 25 μM, 16 hr; for dose response of P8 fragment stabilization (in words): different doses; for lowest concentration inhibiting P8 turnover: dose response
T2 construct: endogenous SPPL2a cleavage of CD74 in a murine B-Cell line; host or cells: A20 mouse B lymphocyte cells
Procedure: as §1, with “Untagged” for “Expression constructs in pcDNA6 for COOH-terminal FLAG (DYKDDDDK) and strep (WSHPQFEK) tagged SPPL2a, SPPL2b, hSPP and pSPP were generated as previously described. Untagged”
as §2

γ-secretase = tested on: γ-secretase; parameters: method as in PMID 24352661, PMID 23791707; conditions: cited from earlier work
SPP = tested on: SPP; parameters: method as in PMID 15252014, PMID 19337374, PMID 12621027; conditions: cited from earlier work

Compound	FBA cleavage by co-transfected SPPL (in words) (hSPP; 10 μM, Aβ ELISA, Fig 1D)	generation of the SPP/SPPL dependent 10 kDa ICD (hSPP; 10 μM, Western blot anti-FLAG M2)	inhibition of xAβ1-25/K16A secretion (in words) (hSPP)	inhibition of FBA cleavage by Western blot (hSPP)	IC50 (hSPP) [nM]	inhibition at 10 µM (hSPP; HEK-293T, 10 μM, overnight, Aβ ELISA) [%]	inhibition at 25 µM (hSPP; HEK-293T) [%]	rank order of inhibition (hSPP)	stabilization of the CD74 8 kDa NTF P8 (SPPL2a)	dose response of P8 fragment stabilization (in words) (SPPL2a)	lowest concentration inhibiting P8 turnover (SPPL2a) [nM]	inhibition of γ-secretase cleavage of APP (γ-secretase)	inhibition of xAβ1-25/K16A secretion (in words) (hSPP; listed as Comp E)	inhibition of SPP activity (SPP)	cleavage products in conditioned media by IP/MS (hSPP; 20 μM)
CC(C)C[C@H](NC(=O)OCc1ccccc1)C(=O)N[C@@H](CC(C)C)C(=O)NCC(=O)CNC(=O)[C@H](CC(C)C)NC(=O)[C@H](CC(C)C)NC(=O)OCc1ccccc1 [(Z-LL)2 ketone]	largely inhibited	significantly reduced	largely inhibited	efficiently inhibited	519 ± 97	> 75	> 90	4	greatly stabilized	stabilized the P8 fragment in a dose dependent manner	40	does not inhibit	–	–	–
C[C@H](NC(=O)Cc1cc(F)cc(F)c1)C(=O)N[C@H]1N=C(c2ccccc2)c2ccccc2N(C)C1=O [Compound E]	–	–	inhibited; also recorded: selectively inhibit hSPP cleavage	efficiently inhibited	1470 ± 93	–	–	–	did not show significant effects	–	–	–	selectively inhibit hSPP	–	–
C[C@H](NC(=O)Cc1cc(F)cc(F)c1)C(=O)NC(C(=O)OC(C)(C)C)c1ccccc1 (stereo partly shown) [DAPT]	–	–	does not inhibit	–	–	–	–	–	no inhibition	–	–	–	–	selectively inhibit PSENs, but not SPPs	–
CC[C@H](C)[C@H](NC(=O)[C@@H](NC(=O)OC(C)(C)C)C(C)C)C(=O)NC(C)C(=O)C(F)(F)C(=O)N[C@H](C(=O)N[C@H](C(=O)OC)[C@@H](C)CC)C(C)C (stereo partly shown) [GSI II] (Boc-VI[X1]VI-OMe)	–	–	efficiently inhibited; also recorded: largely inhibited	efficiently inhibited	423 ± 92	–	–	3	greatly stabilized	stabilized the P8 fragment in a dose dependent manner	40	–	–	–	–
C[C@H](NC(=O)[C@@H](O)c1cc(F)cc(F)c1)C(=O)N[C@@H]1C(=O)N(C)c2ccccc2-c2ccccc21 [LY-411,575]	–	–	largely inhibited	efficiently inhibited	150 ± 106	–	> 90	1	greatly stabilized	stabilized the P8 fragment in a dose dependent manner	40	–	–	inhibit the activity of SPP	No major cleavage product was detected
